Measured values: patent US6534503B1, “Melanocortin receptor-3 ligands to treat sexual dysfunction” (Lion Bioscience AG, priority 1998, dated 2003)

Legend:
Adult male rats = assay: Induction of penile erections in rats after intraperitoneal injection, 60 minute observation; format: in vivo; conditions: IP injection of compound alone, 60 min observation, n=6
Protocol: Adult male rats were housed 2 to 3 per cage and were acclimated to the standard vivarium light cycle (12 hr. light, 12 hr. dark), rat chow and water for a least a week prior to testing. All experiments were performed between 9 a.m. and noon and rats were placed in cylindrical, clear plexiglass chambers during the 60 minute observation period. Mirrors were positioned below the chambers to improve viewing.
Observations began 5 minutes after an intraperitoneal injection of either saline or compound. Two observers counted the number of grooming motions, stretches, yawns and spontaneously occurring penile erections not elicited by genital grooming, and then recorded them as they occurred for a total of 60 minutes. Each observer recorded behaviors of 6 rats at the same time. The observers were unaware of the treatment and animals were tested once, with n=6 in each group. HP-228 was used as a positive control for penile erections.
By comparison, IP injection with agonist TRG 2411 #203 alone (shown below) increased the average number of erections observed to 2.7.

Sprague-Dawley rats = assay: Association of MC-3 with erectile response: HP-228 IP with MC-3-specific antagonist ICV in rats; format: in vivo; conditions: rat, HP-228 1.8 mg/kg IP, PBS ICV (no MC-3 antagonist), n=5
Protocol: Sprague-Dawley rats (n=5) received 1.8 mg/kg HP-228 or PBS via IP injection. The rats also received via ICV injection a dose of PBS or MC-3-specific antagonist at 10 μg/5 μl. […] After administration, the rats were observed as described above. All rats received an ICV injection followed by an IP injection 5 to 10 minutes later.
In the negative control rats, receiving only PBS, 0.3 erections per hour were observed. In the positive control rats, receiving HP-228 but no MC-3 antagonist, 3.8 erections per hour were observed.

Rats = assay: HP-228-mediated erectile response with MC-3 antagonist TRG 6601 #15—2 ICV in rats; format: in vivo; conditions: rat, PBS ICV, HP-228 2 mg/kg/ml IP
Protocol: Rats were obtained and cannulated essentially as described in Example VII. Rats received a 10 μl injection ICV containing antagonist “TRG 6601 #15—2” or vehicle alone. The compound was administered as a 1 mg/ml solution in 5% EtOH/PBS at a dose of […]. Five minutes later, the rats were injected IP with either PBS (1 ml/kg) or HP-228 (2 mg/kg/ml). The animals were observed as in Example VII. Erections per hour and rate of animals responding are shown: […]

[1] = system: Adult male Sprague-Dawley rats; assay: Dose-response of HP-228 for inducing erections in rats; format: in vivo; conditions: rat, IP
Protocol: This example describes a dose-response correlation for using HP-228 to induce erections in rats.
(§1) Adult male Sprague-Dawley rats weighing 220 to 250 g or adult male C57/BL6 mice (Harlan Laboratories; Indianapolis Ind.) were injected intraperitoneally (IP) with 1 ml/kg body weight HP-228 solution or PBS as a negative control. Concentrations of HP-228 were 0.45, 0.9, 1.8, 3.6 and 7.2 mg/ml/kg (n=4 to 6 animals). The animals were allowed 10 minutes to acclimate to the surroundings before observation. The animals were then observed for 60 minutes for penile erections not induced by grooming. Yawning, stretching, grooming behaviors were also recorded.

male Sprague-Dawley rats [2] = assay: Effect of oxytocin receptor antagonist vasotocin on erectile effects in rats; format: in vivo; conditions: rat
Source text: (§2) In both examples, male Sprague-Dawley rats, about 200 to 225 g, were acclimated for 5 days in a reverse light:dark cycle room (dark 10 a.m. to 10 p.m.) before being aseptically ICV cannulated. Rats with indwelling ICV cannulae were housed one per cage. After surgery, 4 days were allowed for recovery and 10 days total were allowed for adaptation to the light cycle. Rats were caged individually after surgery and body weights at the time of treatment averaged 250 g. Otherwise, the procedure is essentially the same as in Example II.
Treatment was between 10 a.m. and 1 p.m. […] Vasotocin (Peninsula Laboratories, San Carlos Calif.) was administered ICV at 100 ng/rat. Oxytocin (Sigma, St. Louis Mo.) was administered ICV at 30 ng/rat (10 μl/rat PBS). Ten minutes later, IP injections of HP-228 or vehicle were given. HP-228 was administered IP at 2 mg/kg in 3 ml/kg PBS. One group of animals received ICV injections of vasotocin and oxytocin ICV injections of 5 μl/rat each at double concentrations for a total of 10 μl injected ICV. In this group, the rats received vasotocin first, followed by oxytocin.

C57/BL6 mice = assay: Dose-response of HP-228 for inducing erections in mice; format: in vivo; conditions: mouse, IP
Protocol: as §1
This example describes a dose-response correlation for using HP-228 to induce erections in mice (n=3 to 5). Age-matched C57/BL6 mice (Harlan Laboratories; Indianapolis Ind.) weighing 20 to 25 g were injected (100 μl/mouse) intraperitoneally essentially as described above and observed.

male Sprague-Dawley rats [3] = assay: Effect of dopamine receptor antagonist sulpiride on erectile effects in rats; format: in vivo; conditions: rat
Source text: as §2
Treatment was between 9:30 a.m. and noon. Each animal received an initial IP injection of vehicle (3 ml/kg PBS) or sulpiride. Sulpiride (Sigma) was administered IP at 50 mg/kg (6 ml/kg IP). Ten minutes later, the animals received a final IP injection of HP-228 or vehicle or a SC injection of apomorphine. HP-228 was administered IP at 2 mg/kg in 3 ml/kg PBS. Apomorphine (Sigma) was administered SC at 0.1 mg/kg (1 ml/kg sterile water).

human subjects = conditions: pilot phase I clinical studies (Dorr et al. 1996; Wessells et al. 1998); cited from earlier work
[4] = single agent plus PBS: oxytocin 30 ng/rat ICV, HP-228 2 mg/kg IP, vasotocin 100 ng/rat ICV
[5] = single agent plus PBS: apomorphine 0.1 mg/kg SC, HP-228 2 mg/kg IP, sulpiride 50 mg/kg IP

Substance | average erections observed per rat per hour (Adult male rats) | erections per hour (Sprague-Dawley rats) | erections per hour (Rats) | rate of animals responding (Rats) | avg. erections observed/hour ([1]; 0.45 mg/ml/kg HP-228, 60 min observation) | avg. erections observed/hour ([1]; 0.9 mg/ml/kg HP-228, 60 min observation) | avg. erections observed/hour ([1]; 1.8 mg/ml/kg HP-228, 60 min observation) | avg. erections observed/hour ([1]; 3.6 mg/ml/kg HP-228, 60 min observation) | avg. erections observed/hour ([1]; 7.2 mg/ml/kg HP-228, 60 min observation) | response rate, % of animals (male Sprague-Dawley rats [2]; oxytocin and HP-228 groups) | erections per hour (male Sprague-Dawley rats [2]; [4]) | responder rate of animals (rats responding out of rats) (male Sprague-Dawley rats [2]; [4]) | avg. erections observed/hour (C57/BL6 mice; 25 μg/mouse HP-228) | avg. erections observed/hour (C57/BL6 mice; 50 μg/mouse HP-228) | avg. erections observed/hour (C57/BL6 mice; 100 μg/mouse HP-228) | avg. erections observed/hour (C57/BL6 mice; 250 μg/mouse HP-228) | response rate, % of animals (male Sprague-Dawley rats [3]; apomorphine and HP-228 groups) | erections per hour (male Sprague-Dawley rats [3]; [5]) | rate of animals responding (male Sprague-Dawley rats [3]; [5]) | penile erections in human subjects (human subjects)
Ac-Nle-Gln-His-(D)Phe-Arg-(D)Trp-Gly-NH2 [HP-228] | 4.8 erections per rat per hour | 3.8 erections per hour | 4.7 erections per hour | 6/6 | 2.80 erections/hour | 2.60 erections/hour | 3.67 erections/hour | 7.00 erections/hour | 5.75 erections/hour | 88%-100% | 4.9 erections per hour | 7/8 | 3.00 erections/hour | 6.67 erections/hour | 5.33 erections/hour | 3.00 erections/hour | 100% | 7.3 erections per hour | 5/5 | 
MELANOTAN-II |  |  |  |  |  |  |  |  |  |  |  |  |  |  |  |  |  |  |  | cause penile erections
